Laboratory results: the NIST ThermoML archive (doi:10.1021/je901050v)

Tests used:
[1] = 101.33 kPa, Liquid; for mass density: Vibrating tube method; for viscosity: Concentric cylinders viscometry
[2] = refractive index (Na D-line) (dimensionless); settings: 101.33 kPa, Liquid, Standard Abbe refractometry

CCCCCCCCCCn1cc[n+](CCC#N)c1.[Br-] [3-(2-cyanoethyl)-1-decyl-1H-imidazolium bromide]
Settings	mass density, [1] [kg/m3]	refractive index, [2]	viscosity, [1] [mPa·s]
308.15 K	1134.2	1.50786	–
313.15 K	1129.5	1.50696	16702
318.15 K	1125.6	1.50606	10314
323.15 K	1121.2	1.50502	6813.4
328.15 K	1118.2	1.50388	4573.6
333.15 K	1115	1.50279	3016.4
338.15 K	1111.7	–	2051.2
343.15 K	1108.5	–	1426.6
348.15 K	1105.2	–	1014.6
353.15 K	1101.9	–	737

CCCCn1cc[n+](CCC#N)c1.[Br-] [1-butyl-3-(2-cyanoethyl)-1H-imidazolium bromide]
Settings	mass density, [1] [kg/m3]	refractive index, [2]	viscosity, [1] [mPa·s]
293.15 K	1308.5	–	–
298.15 K	1304.7	1.5454	19103
303.15 K	1301.1	1.54454	11304
308.15 K	1297.7	1.54346	7058.4
313.15 K	1294.3	1.54229	4502.1
318.15 K	1291	1.54111	2953
323.15 K	1287.6	1.53992	1989.7
328.15 K	1284.4	1.53869	1377.5
333.15 K	1281.2	1.53748	975.6
338.15 K	1277.9	–	705.8
343.15 K	1274.7	–	520.5
348.15 K	1271.4	–	390.7
353.15 K	1268.2	–	298.1

CCCCCCn1cc[n+](CCC#N)c1.[Br-] [3-(2-cyanoethyl)-1-hexyl-1H-imidazolium bromide]
Settings	mass density, [1] [kg/m3]	refractive index, [2]	viscosity, [1] [mPa·s]
293.15 K	1232.4	–	–
298.15 K	1229	1.52872	–
303.15 K	1225.6	1.52823	15893
308.15 K	1222.3	1.52719	9029.8
313.15 K	1219	1.526	5610.4
318.15 K	1215.7	1.52479	3602.1
323.15 K	1212.4	1.52354	2379.9
328.15 K	1209.1	1.52229	1618.2
333.15 K	1205.8	1.52117	1128.4
338.15 K	1202.5	–	805.1
343.15 K	1199.2	–	639.6
348.15 K	1195.9	–	465.7
353.15 K	1192.7	–	359.3

CCCCCCCCn1cc[n+](CCC#N)c1.[Br-] [3-(2-cyanoethyl)-1-octyl-1H-imidazolium bromide]
Settings	mass density, [1] [kg/m3]	refractive index, [2]	viscosity, [1] [mPa·s]
293.15 K	1180.1	–	–
298.15 K	1176.6	1.51473	–
303.15 K	1173.2	1.51362	–
308.15 K	1169.8	1.51266	19620
313.15 K	1166.4	1.51149	13044
318.15 K	1163	1.51024	8302.7
323.15 K	1159.6	1.50891	5136.1
328.15 K	1156.2	1.50757	3291.8
333.15 K	1152.9	1.50604	2160.4
338.15 K	1149.5	–	1459.8
343.15 K	1146.1	–	1019.6
348.15 K	1142.8	–	727.9
353.15 K	1139.6	–	530.5
